Patent US20100261723A1, “TRISUBSTITUTED PYRIMIDINE DERIVATIVES FOR THE TREATMENT OF PROLIFERATIVE DISEASES” (ASTRAZENECA AB, priority 2007, published 2010)

Target: T1, mTOR kinase (Homo sapiens, UniProt P42345)
T1 construct: FLAG; made in house
Assay: In vitro mTOR kinase assay, Test (a)(i) (AlphaScreen)
Format: biochemical
Conditions: recombinant FLAG-tagged mTOR (1362-2549), ATP 20 μM; read-out: Test (a)(i) IC50
Procedure: (a)(i) In Vitro mTOR Kinase Assay
A C-terminal truncation of mTOR encompassing amino acid residues 1362 to 2549 of mTOR (EMBL Accession No. L34075) was stably expressed as a FLAG-tagged fusion in HEK293 cells as described by Vilella-Bach et al., […], 1999, 274, 4266-4272. The HEK293 FLAG-tagged mTOR (1362-2549) stable cell line was routinely maintained at 37° C. with 5% CO2 up to a confluency of 70-90% in Dulbecco's modified Eagle's growth medium (DMEM; Invitrogen Limited, Paisley, UK Catalogue No. 41966-029) containing 10% heat-inactivated foetal calf serum (FCS; Sigma, Poole, Dorset, UK, Catalogue No. F0392), 1% L-glutamine (Gibco, Catalogue No. 25030-024) and 2 mg/ml Geneticin (G418 sulfate; Invitrogen Limited, UK Catalogue No. 10131-027). Following expression in the mammalian HEK293 cell line, expressed protein was purified using the FLAG epitope tag using standard purification techniques.
A 30 μl mixture of recombinant purified mTOR enzyme, 1 μM biotinylated peptide substrate (Biotin-Ahx-[…]NH2; Bachem UK Ltd), ATP (20 μM) and a buffer solution [comprising Tris-HCl pH7.4 buffer (50 mM), EGTA (0.1 mM), bovine serum albumin (0.5 mg/mL), DTT (1.25 mM) and manganese chloride (10 mM)] was agitated at room temperature for 90 minutes.
These assay solutions were incubated for 2 hours at room temperature.
Phosphorylated biotinylated peptide is formed in situ as a result of mTOR mediated phosphorylation. The phosphorylated biotinylated peptide that is associated with AlphaScreen Streptavidin donor beads forms a complex with the p70 S6 Kinase (T389) 1A5 Monoclonal Antibody that is associated with Alphascreen Protein A acceptor beads. […] Accordingly, the presence of mTOR kinase activity results in an assay signal. In the presence of an mTOR kinase inhibitor, signal strength is reduced.

T1 sequence (P42345 1362-2549): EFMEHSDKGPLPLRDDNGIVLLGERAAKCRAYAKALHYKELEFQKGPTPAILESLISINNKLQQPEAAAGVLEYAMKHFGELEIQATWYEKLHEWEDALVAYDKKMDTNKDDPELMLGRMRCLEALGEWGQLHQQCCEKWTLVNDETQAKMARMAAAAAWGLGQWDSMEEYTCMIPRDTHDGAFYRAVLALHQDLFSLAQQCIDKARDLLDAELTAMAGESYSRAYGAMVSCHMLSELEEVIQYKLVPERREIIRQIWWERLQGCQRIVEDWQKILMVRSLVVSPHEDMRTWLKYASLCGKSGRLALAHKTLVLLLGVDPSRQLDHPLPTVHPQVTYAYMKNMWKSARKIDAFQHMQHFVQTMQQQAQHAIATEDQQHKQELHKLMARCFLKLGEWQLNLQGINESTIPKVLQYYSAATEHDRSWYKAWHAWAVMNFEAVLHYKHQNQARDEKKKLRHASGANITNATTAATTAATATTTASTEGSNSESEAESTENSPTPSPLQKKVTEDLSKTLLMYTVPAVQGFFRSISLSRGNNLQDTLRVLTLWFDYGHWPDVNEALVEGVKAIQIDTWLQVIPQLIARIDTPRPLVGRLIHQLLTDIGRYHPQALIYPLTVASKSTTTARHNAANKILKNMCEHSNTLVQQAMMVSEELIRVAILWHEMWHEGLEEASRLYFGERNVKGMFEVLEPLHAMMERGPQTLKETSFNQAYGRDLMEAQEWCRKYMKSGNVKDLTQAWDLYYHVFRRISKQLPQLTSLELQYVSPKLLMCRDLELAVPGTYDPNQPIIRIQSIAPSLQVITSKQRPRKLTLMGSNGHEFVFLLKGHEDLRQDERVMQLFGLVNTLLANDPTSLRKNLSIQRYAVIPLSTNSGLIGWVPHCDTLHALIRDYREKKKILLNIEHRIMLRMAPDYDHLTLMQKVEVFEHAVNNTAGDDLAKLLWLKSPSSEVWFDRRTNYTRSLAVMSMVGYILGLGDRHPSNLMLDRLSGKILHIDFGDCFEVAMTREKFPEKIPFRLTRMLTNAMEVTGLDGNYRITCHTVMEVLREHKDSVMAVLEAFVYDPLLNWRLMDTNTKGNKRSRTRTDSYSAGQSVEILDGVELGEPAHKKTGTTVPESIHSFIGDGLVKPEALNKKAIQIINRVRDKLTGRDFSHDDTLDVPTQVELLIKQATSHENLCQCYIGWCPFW

SMILES | IC50 [nM]
CS(=O)(=O)Cc1cc(N2CCOCC2)nc(-c2ccc(NC(=O)c3c[nH]cn3)cc2)n1 [Example 5f, N-[4-[4-(methylsulfonylmethyl)-6-morpholin-4-yl-pyrimidin-2-yl]phenyl]-1H-imidazole-4-carboxamide] | 966
CC(C)C(=O)Nc1ccc(-c2nc(CS(C)(=O)=O)cc(N3CCOCC3)n2)cc1 [Example 5g, 2-methyl-N-[4-[4-(methylsulfonylmethyl)-6-morpholin-4-yl-pyrimidin-2-yl]phenyl]propanamide] | 3670
CC(C)CC(=O)Nc1ccc(-c2nc(CS(C)(=O)=O)cc(N3CCOCC3)n2)cc1 [Example 5h, 3-methyl-N-[4-[4-(methylsulfonylmethyl)-6-morpholin-4-yl-pyrimidin-2-yl]phenyl]butanamide] | 2580
CS(=O)(=O)Cc1cc(N2CCOCC2)nc(-c2ccc(NC(=O)c3ccco3)cc2)n1 [Example 5i, N-[4-[4-(methylsulfonylmethyl)-6-morpholin-4-yl-pyrimidin-2-yl]phenyl]furan-2-carboxamide] | 1420
COCC(=O)Nc1ccc(-c2nc(CS(C)(=O)=O)cc(N3CCOCC3)n2)cc1 [Example 5j, 2-methoxy-N-[4-[4-(methylsulfonylmethyl)-6-morpholin-4-yl-pyrimidin-2-yl]phenyl]acetamide] | 8270
COCCC(=O)Nc1ccc(-c2nc(CS(C)(=O)=O)cc(N3CCOCC3)n2)cc1 [Example 5k, 3-methoxy-N-[4-[4-(methylsulfonylmethyl)-6-morpholin-4-yl-pyrimidin-2-yl]phenyl]propanamide] | 2080
CCOCCC(=O)Nc1ccc(-c2nc(CS(C)(=O)=O)cc(N3CCOCC3)n2)cc1 [Example 5l, 3-ethoxy-N-[4-[4-(methylsulfonylmethyl)-6-morpholin-4-yl-pyrimidin-2-yl]phenyl]propanamide] | 2000
CS(=O)(=O)Cc1cc(N2CCOCC2)nc(-c2ccc(NC(=O)CCC(F)(F)F)cc2)n1 [Example 5m, 4,4,4-trifluoro-N-[4-[4-(methylsulfonylmethyl)-6-morpholin-4-yl-pyrimidin-2-yl]phenyl]butanamide] | 1110
CS(=O)(=O)Cc1cc(N2CCOCC2)nc(-c2ccc(NC(=O)C3CC3)cc2)n1 [Example 5n, N-[4-[4-(methylsulfonylmethyl)-6-morpholin-4-yl-pyrimidin-2-yl]phenyl] cyclopropanecarboxamide] | 614
CS(=O)(=O)Cc1cc(N2CCOCC2)nc(-c2ccc(NC(=O)CC#N)cc2)n1 [Example 5o, 2-cyano-N-[4-[4-(methylsulfonylmethyl)-6-morpholin-4-yl-pyrimidin-2-yl]phenyl]acetamide] | 1850
CS(=O)(=O)Cc1cc(N2CCOCC2)nc(-c2ccc(NC(=O)CCc3ccco3)cc2)n1 [Example 5q, 3-(2-furyl)-N-[4-[4-(methylsulfonylmethyl)-6-morpholin-4-yl-pyrimidin-2-yl]phenyl]propanamide] | 4850
CS(=O)(=O)Cc1cc(N2CCOCC2)nc(-c2ccc(NC(=O)c3cccnc3)cc2)n1 [Example 5r, N-[4-[4-(methylsulfonylmethyl)-6-morpholin-4-yl-pyrimidin-2-yl]phenyl]pyridine-3-carboxamide] | 2760
CS(=O)(=O)Cc1cc(N2CCOCC2)nc(-c2ccc(NC(=O)C(N)=O)cc2)n1 [Example 5s, N-[4-[4-(methylsulfonylmethyl)-6-morpholin-4-yl-pyrimidin-2-yl]phenyl]oxamide] | 2290
CS(=O)(=O)Cc1cc(N2CCOCC2)nc(-c2ccc(NC(=O)C3CCC(=O)N3)cc2)n1 (stereo not shown) [Example 5t, N-[4-[4-(methylsulfonylmethyl)-6-morpholin-4-yl-pyrimidin-2-yl]phenyl]-5-oxo-pyrrolidine-2-carboxamide] | 2860
CS(=O)(=O)Cc1cc(N2CCOCC2)nc(-c2ccc(NC(=O)C3CCOC3)cc2)n1 (stereo not shown) [Example 5u, N-[4-[4-(methylsulfonylmethyl)-6-morpholin-4-yl-pyrimidin-2-yl]phenyl]oxolane-3-carboxamide] | 4840

Other lines, results leading:

IC50 [nM] | SMILES
36.9 | CS(=O)(=O)Cc1cc(N2CCOCC2)nc(-c2ccc(NC(=O)c3ccno3)cc2)n1 [Example 5v, N-[4-[4-(methylsulfonylmethyl)-6-morpholin-4-yl-pyrimidin-2-yl]phenyl]-1,2-oxazole-5-carboxamide]
8090 | Cc1ccc(C(=O)Nc2ccc(-c3nc(CS(C)(=O)=O)cc(N4CCOCC4)n3)cc2)cn1 [Example 5w, 6-methyl-N-[4-[4-(methylsulfonylmethyl)-6-morpholin-4-yl-pyrimidin-2-yl]phenyl]pyridine-3-carboxamide]
6200 | CS(=O)(=O)Cc1cc(N2CCOCC2)nc(-c2ccc(NC(=O)c3ccc(C#N)nc3)cc2)n1 [Example 5x, 6-cyano-N-[4-[4-(methylsulfonylmethyl)-6-morpholin-4-yl-pyrimidin-2-yl]phenyl]pyridine-3-carboxamide]
2520 | CS(=O)(=O)Cc1cc(N2CCOCC2)nc(-c2ccc(NC(=O)Cn3ccnc3)cc2)n1 [Example 5y, 2-imidazol-1-yl-N-[4-[4-(methylsulfonylmethyl)-6-morpholin-4-yl-pyrimidin-2-yl]phenyl]acetamide]
9050 | Cc1ccc(C(=O)Nc2ccc(-c3nc(CS(C)(=O)=O)cc(N4CCOCC4)n3)cc2)n1C [Example 5z, 1,5-dimethyl-N-[4-[4-(methylsulfonylmethyl)-6-morpholin-4-yl-pyrimidin-2-yl]phenyl]pyrrole-2-carboxamide]
240 | C[C@H]1COCCN1c1cc(CS(C)(=O)=O)nc(-c2ccc(N(C)C(=O)c3ccno3)cc2)n1 [Example 7, N-Methyl-N-[4-[4-[(3S)-3-methylmorpholin-4-yl]-6-(methylsulfonylmethyl)pyrimidin-2-yl]phenyl]-1,2-oxazole-5-carboxamide]
1980 | C[C@H]1COCCN1c1cc(CS(C)(=O)=O)nc(-c2cccc(NC(=O)c3ccno3)c2)n1 [Example 7a, N-[3-[4-[(3S)-3-methylmorpholin-4-yl]-6-(methylsulfonylmethyl)pyrimidin-2-yl]phenyl]-1,2-oxazole-5-carboxamide]
